Series [1] can be described thus: 6-month double-blind, placebo-controlled, parallel group trial of xanomeline in patients with Alzheimer disease. The class given is in vivo, human. The settings on record: in view of Mirza et al 2003; i.e. 225 mg/day. An excerpt:
A close analog of tazomeline, the 3-(4-hexyloxy-1,2,5-thiadiazol-3-yl)-1-methyl-5,6-dihydro-2H-pyridine known as xanomeline and described in U.S. Pat. No. 5,043,345, the disclosure of which is incorporated herein by reference in its entirety, has been disclosed as a muscarinic acetylcholine receptor agonist with reasonable selectivity for the M1 and M4 subtypes. The efficacy of xanomeline, which stimulates muscarinic receptors in the brain and in the periphery was studied in patients with Alzheimer disease in a 6-month double-blind, placebo-controlled, parallel group trial. […] Such side effects prevented the use of doses of xanomeline that could achieve maximum anti-dementia efficacy and reflect stimulation of cholinergic receptors outside the brain.
Dose-limiting adverse events attending the use of drugs that stimulate cholinergic transmission, such as xanomeline, appear to primarily reflect the excessive stimulation of peripheral cholinergic receptors, especially those of the muscarinic type (mAChRs), such that in both healthy volunteers and Alzheimer's patients many of these side effects have been reported for xanomeline; in the patient population this led to a discontinuation rate higher than 50% while the effects on cognition were not robust and mainly seen at the highest doses tested (Mirza 2003).

The conditions of series [2]: cited from earlier work.
The conditions of series [3]: cited from earlier work. The source holds these as a separate data set.
The conditions of series [4]: primate study; cited from earlier work.
A further series concerns muscarinic receptors. Conditions: cited from earlier work.
Series [5] relates to peripheral cholinergic receptors. The settings on record: rats; cited from earlier work.
The conditions of series [6]: clinical trials for Alzheimer disease; cited from earlier work.
In series [7] the test system is peripheral cholinergic receptors. Conditions: monkeys; cited from earlier work.

Data on three compounds can be found in patent US20180250270A1, “MUSCARINIC COMBINATION AND ITS USE FOR COMBATING HYPOCHOLINERGIC DISORDERS OF THE CENTRAL NERVOUS SYSTEM” (Chase Pharmaceuticals Corporation, priority 2015, published 2018).

The structures appear in SMILES notation. Read-outs that look alike come from different tables or passages of the source.

Regarding `CCCCCCOc1nsnc1C1=CCCN(C)C1` [xanomeline, 3-(4-hexyloxy-1,2,5-thiadiazol-3-yl)-1-methyl-5,6-dihydro-2H-pyridine], the “maximum tolerated dose as considered in the context of the invention” value in series [1] is recorded as 75 mg three times per day. Further, the “patients who discontinued treatment” value in series [2] (75 mg xanomeline orally three times daily, mainly adverse events, predominantly gastrointestinal) is listed as 59%. Besides, the “cognitive and behavioral symptoms of Alzheimer disease compared to placebo” value in series [2] (6-month trial) is given as “significantly improve”. In addition, the discontinuation rate result in series [2] (Alzheimer's patient population (Mirza 2003)) was “higher than 50%”. The side effects entry in series [2] (bradycardia, gastro-intestinal distress, excessive salivation, sweating) is “dose-dependent unacceptable side effects”. The MTD in series [3] (defined by Sramek et al.) was 100 mg three times a day. Also, in series [3] (human, in vivo), the minimum intolerated dose is 115 mg three times a day.
Turning to `CCCCSc1nsnc1[C@H]1CN2CCC[C@H]1C2` [BuTAC, (5R,6R)-6-(3-butylthio-1,2,5-thiadiazol-4-yl)-1-azabicyclo[3.2.1]octane], the vomiting result in series [4] is listed as “induced vomiting”. For the same compound, in the series on muscarinic receptors, the “affinity for muscarinic receptors” value is reported as “high affinity”.
Turning to `CO/N=C/C1=CCCN(C)C1` [milameline, (E)-N-methoxy-1-(1-methyl-1,2,5,6-tetrahydropyridin-3-yl)methanimine], the “doses producing central cholinergic action relative to peripheral action” value in series [5] and in series [7] was “at doses slightly higher than those stimulating peripheral cholinergic receptors” each time. In series [6], the maximum tolerated dose is on record as 2 mg four times per day.
